Values joined by “and” are separate entries in the source; they are usually repeats but may differ in a detail not shown here. Equal entries are not always repeated.
Assays:
[1] = target: T1, tScCBS (Saccharomyces cerevisiae, UniProt P32582); assay: UV-Vis absorption titration of tScCBS (dissociation constants); type: binding; settings: tScCBS 1 mg/mL, pH 8.5; decrease in absorbance at 412 nm (AOAA), increase at 460 nm (Ser) or 440 nm (Cys); 3 min incubation; read-out: Dissociation constant Kd (UV-Vis absorption)
T1 construct: 6xHis (C); made in house
T1 sequence (P32582 1-345): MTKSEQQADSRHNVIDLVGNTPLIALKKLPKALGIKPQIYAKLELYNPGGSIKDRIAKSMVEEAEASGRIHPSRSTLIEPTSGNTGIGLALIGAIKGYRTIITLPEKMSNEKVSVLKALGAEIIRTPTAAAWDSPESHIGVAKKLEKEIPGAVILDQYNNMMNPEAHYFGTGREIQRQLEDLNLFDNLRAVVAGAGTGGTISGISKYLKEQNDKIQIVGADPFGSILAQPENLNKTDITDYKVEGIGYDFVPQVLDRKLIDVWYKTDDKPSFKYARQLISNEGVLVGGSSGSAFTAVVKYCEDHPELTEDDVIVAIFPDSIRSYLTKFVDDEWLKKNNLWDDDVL
Method: (§1) CBS enzymes. Recombinant truncated Saccharomyces cerevisiae CBS lacking the C-terminal regulatory domain (residues 346–507) and carrying the C-terminal 6xHis tag (tScCBS) was prepared as described previously. Engineered recombinant Homo sapiens CBS lacking a loop protruding from the central β-strand of the CBS2 domain corresponding to the residues 516–525 (HsCBS; described in detail in [21]) was purchased from GenScript.
(§2) UV − Vis and fluorescence spectroscopy. Absorption spectra were collected on a Tecan Infinite M200 Pro spectrophotometer in a buffer containing 50 mM Tris–HCl pH 8.5, 20 mM NaCl and 0.5 mM tris(2-carboxyethyl)phosphine (TCEP). All the spectra were carried out with a protein concentration of 1 mg/mL with a 1 cm path-length quartz cuvette in a total volume of 150 µL. tScCBS was titrated directly in a cuvette by successive additions of different concentrations of AOAA, Ser and Cys, respectively, and spectra were recorded between 240 and 600 nm after an incubation time of 3 min at RT. Fluorescence emission spectra were collected under the same conditions upon PLP excitation at 410 nm. Blank spectra were subtracted from sample spectra.

[2] = target: T1, tScCBS; assay: Fluorescence emission titration of tScCBS (PLP excitation at 410 nm); type: binding; settings: tScCBS 1 mg/mL, pH 8.5; decrease in emission at 520 nm, excitation 410 nm; read-out: Dissociation constant Kd (fluorescence)
Method: as §1, §2

[3] = target: T1, tScCBS; assay: Kinetics of AOAA binding to tScCBS and displacement by substrate, followed by absorption spectra; settings: in the presence of Cys, data not shown
Method: as §2
Fig. 2 Spectroscopic rescue of AOAA-inhibited tScCBS by Ser. A Changes in the absorption spectra of tScCBS upon addition of 20 µM AOAA (cyan lines) followed for 1 h. Subsequently, 1 mM Ser (gray lines) was added and spectral changes were followed for additional 1 h. B Representative kinetic fitting of AOAA binding to tScCBS followed at 412 nm. C Representative kinetic fitting of AOAA displacement from tScCBS by Ser by following changes at 370 nm and 460 nm. The kinetic parameters of the observed processes are shown as insets in panels B and C. Far-UV (D) and near-UV (E) CD spectra of tScCBS (black), tScCBS complexed with 20 µM AOAA (cyan) or 1 mM Ser (magenta) and tScCBS complexed with 20 µM AOAA followed by 1 h incubation with 1 mM Ser (green).

[4] = target: T1, tScCBS; assay: CBS H2S production assay (AzMC fluorometric), tScCBS; type: biochemical; settings: tScCBS; AzMC assay
Method: (§3) CBS H2S production assay. H2S-producing activity of CBS, utilizing Cys and Hcy, was determined using a fluorometric assay employing the H2S-selective fluorescent probe 7-azido-4-methylcoumarin (AzMC) as described previously. The reaction mixture in a total volume of 200 µL contained 50 mM Tris–HCl pH 8.6, 5 μM PLP, 2 mM Hcy, 10 μM AzMC and 500 ng tScCBS or HsCBS. The plate was incubated for 10 min at 37°C and the enzymatic activity was triggered by adding 0–50 mM Cys. The fluorescence of the mixtures at 450 nm (excited at 365 nm) was followed for 2 h at 37°C. All measurements were performed in triplicates using Tecan Infinite 200 PRO microplate reader. Kinetic data were analyzed using GraphPad Prism software.

[5] = target: T2, HsCBS (Homo sapiens, UniProt P35520, DEL516-525); assay: CBS H2S production assay (AzMC fluorometric), HsCBS; type: biochemical; settings: AzMC assay
T2 construct: purchased GenScript
T2 sequence (P35520 with tags, fused parts or gaps DEL516-525): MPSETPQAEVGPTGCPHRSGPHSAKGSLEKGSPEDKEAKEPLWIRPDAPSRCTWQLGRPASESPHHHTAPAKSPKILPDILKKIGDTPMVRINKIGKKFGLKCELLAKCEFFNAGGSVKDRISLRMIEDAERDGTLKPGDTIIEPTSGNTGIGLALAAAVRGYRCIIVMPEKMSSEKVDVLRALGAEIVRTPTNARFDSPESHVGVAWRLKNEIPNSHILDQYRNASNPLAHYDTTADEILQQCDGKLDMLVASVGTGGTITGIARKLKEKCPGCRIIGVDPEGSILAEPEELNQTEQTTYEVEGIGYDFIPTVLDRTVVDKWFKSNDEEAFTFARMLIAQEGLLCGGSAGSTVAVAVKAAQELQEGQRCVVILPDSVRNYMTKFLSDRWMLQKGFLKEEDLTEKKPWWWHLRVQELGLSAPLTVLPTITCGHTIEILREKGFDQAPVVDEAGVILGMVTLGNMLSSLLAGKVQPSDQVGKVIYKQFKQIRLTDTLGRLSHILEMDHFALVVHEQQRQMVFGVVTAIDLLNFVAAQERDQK
Method: as §3

[6] = target: T1, tScCBS; assay: CBL-LDH coupled-coupled CBS assay, tScCBS; type: biochemical; settings: tScCBS; CBL-LDH coupled-coupled assay
Method: (§4) CBS coupled-coupled assay. CBS canonical activity utilizing Ser and Hcy was determined using cystathionine beta-lyase (CBL) and lactate-dehydrogenase (LDH) coupled-coupled assay as described previously with a few modifications. Native L-LDH from rabbit muscle was purchased from Sigma (catalog no. L2500) and recombinant CBL was purchased from Creative Enzymes (catalog no. NATE-1146). In a final volume of 150 µL, the reaction mixture contained 50 mM Tris–HCl pH 8.9, 20 µM PLP, 500 µM NADH, 1.3 µM LDH, 0.1 µM CBL, 0–20 mM Ser (or 0–50 mM Cys) and 500 ng of tScCBS or HsCBS. Assays with HsCBS were carried out in the absence or presence of 500 µM CBS allosteric activator S-adenosylmethionine (SAM). The reaction was triggered by the addition of 2 mM Hcy and the oxidation of NADH to NAD^+ was followed by monitoring the decrease in absorbance at 340 nm over time (ε340 = 6220 M^−1.cm^−1). […] All measurements were performed in triplicates using Tecan Infinite 200 PRO microplate reader. Kinetic data were analyzed using GraphPad Prism software.

[7] = target: T2, HsCBS; assay: CBL-LDH coupled-coupled CBS assay, HsCBS; type: biochemical; settings: CBL-LDH coupled-coupled assay
Method: as §4

Kd [1]: ~58 µM and 57.3 µM | Kd [2]: 48.9 ± 14.6 µM | Displacement of AOAA from the tScCBS active site [3]: did not occur | Vmax [4]: 317.0 ± 24.1 µmol/h/mg | kcat [4]: 3.4 ± 0.3 s⁻¹ | Vmax ([5]; HsCBS + SAM): 113.3 ± 4.0 µmol/h/mg | kcat ([5]; HsCBS + SAM): 1.93 ± 0.06 s⁻¹ | Vmax ([5]; HsCBS – SAM): 30.8 ± 1.9 µmol/h/mg | kcat ([5]; HsCBS – SAM): 0.52 ± 0.04 s⁻¹ | Vmax [6]: 161.5 ± 4.5 µmol/h/mg | kcat [6]: 1.7 ± 0.1 s⁻¹ | Vmax ([7]; HsCBS + SAM): 97.2 ± 7.1 µmol/h/mg | kcat ([7]; HsCBS + SAM): 1.66 ± 0.03 s⁻¹ | Vmax ([7]; HsCBS – SAM): 20.1 ± 1.7 µmol/h/mg | kcat ([7]; HsCBS – SAM): 0.34 ± 0.02 s⁻¹
Compound: N[C@@H](CS)C(=O)O [Cys, cysteine]

From PMC9304066, “H2S biogenesis by cystathionine beta-synthase: mechanism of inhibition by aminooxyacetic acid and unexpected role of serine” (Cellular and Molecular Life Sciences: CMLS, 2022)
